Consider 4 compounds from patent publication US20240043615A1, “AMINO ACID POLYMER-PLATINUM ANTICANCER DRUG CONJUGATES” (priority 2020, published 2024).

Series [1] concerns A2780 cisplatin-resistant cells (A2780-Cis). The series is described as follows: Cytotoxicity in cisplatin-resistant A2780 cells. Type of series: cell-based, human. To be noted: different concentrations of Pt, 30 min. As for the experimental part: (§1) A2780 cisplatin-resistant cells (A2780-Cis) and multiple drug resistant MDA-MB-231 cells (MDA-MB-231/MDR) were employed as models of drug resistant cells. 5×10^3 A2780-Cis or MDA-MB-231/MDR cells/well were seeded in a 96-well plate and cultured overnight. […] The results of this study are found in FIGS. 8A and 8B.

Series [2] concerns multiple drug resistant MDA-MB-231 cells (MDA-MB-231/MDR). The experiment in a line: Cytotoxicity in multiple drug resistant MDA-MB-231 cells. Format: cell-based, human. To be noted: different concentrations of Pt, 30 min. The protocol:
as §1

The test system of series [3] is CT26 cells. To be noted: for cell viability of CT26 cells with respect to incubation time: 25 μg Pt/mL, different time points, CCK8; for cell viability of CT26 cells: varying platinum concentration, 30 min. As for the experimental part: 5×10^3 CT26 cells/well were seeded in a 96-well plate and cultured overnight. […] Cell viability was detected by CCK8 assay. The concentration of each of the platinum derivatives was calculated based on platinum concentration.
(§2) CT26, A2780 or MDA-MB-231 cells were seeded in a 96-well plate and cultured overnight.
The concentration of each of the platinum derivatives was calculated based on platinum concentration.

The subject of series [4] is A2780 cisplatin-resistant tumor. To be noted: i.v.; control 5% glucose.
The subject of series [5] is MDA-MB-231 human breast cancer cells. The experiment in a line: Cytotoxicity in MDA-MB-231 cells. Type of series: cell-based. To be noted: varying platinum concentration, 30 min. As for the experimental part:
as §2

A short description of series [6]: Plasma pharmacokinetics in tumor-free mice (Pt by ICP-OES). To be noted: 4 mg (Pt)/kg Pt-equivalent dosage.
Experimental: The dosage was calculated based on Pt. Plasma samples were collected at different time points. Pt content was measured by ICP-OES.
Series [7] concerns CT26 cells. The series is described as follows: LysoTracker flow cytometry (lysosomal rupture). Format: cell-based, mouse. To be noted: treatment 1 h; LysoTracker deep red 100 nM 40 min. (In general: A flow cytometer gives signals particle by particle.)
Experimental: CT26 cells were seeded in a 6-well plate and cultured overnight. […] Cells were then stained with LysoTracker deep red (100 nM) for 40 min. Cells were analyzed by flow cytometry.
Series [8] in a line: Body weight change in mice. To be noted: single 8 mg (Pt)/kg injection.
Series [9] in a line: Spleen toxicity evaluation in mice. To be noted: mice after treatment.
Series [10] concerns A2780 human ovarian cancer cells. The experiment in a line: Cytotoxicity in A2780 cells. Type of series: cell-based. To be noted: varying platinum concentration, 30 min. The protocol:
as §2

The test system of the next series is A2780 tumor. The series is described as follows: Anti-tumor efficacy, A2780 tumor-bearing mice. Type of series: in vivo. To be noted: i.v.
Series [11] has as its system CT26 tumor. The experiment in a line: Anti-tumor efficacy, CT26 tumor-bearing mice. Format: in vivo. To be noted: i.v.
For series [12], the system named is CT26 cells. The series is described as follows: Annexin-V/propidium iodide flow cytometry (apoptosis/necrosis). Type of series: cell-based, mouse. To be noted: 15 μg (Pt)/mL, different times.
Experimental: CT26 cells were seeded in a 6-well plate and cultured overnight. […] Apoptosis: Annexin V^+ PI^−, Necrosis: PI^+.
For series [13], the system named is CT26 tumor. To be noted: CT26-tumor bearing mice, i.v., same dosage of oxaliplatin and P(G-A)-Asp-Pt.
Series [14] concerns CT26 cells. To be noted: short-time treatment.
The subject of series [15] is CT26 cells. To be noted: dynasore, chlorpromazine, genistein, cytochalasin D 40 min, then 25 μg (Pt)/mL for 30 min.
Setting [16] is: same Pt dosage of oxaliplatin and P(G-A)-Asp-Pt, control 5% glucose.

Entries after “also recorded” stand apart in the source; their conditions may differ.

As for `N.N.[Cl][Pt][Cl]` [cisplatin], the “cell viability of A2780-Cis cells” value in [1] is recorded as “little effect”. In addition, in [2], the “cell viability of MDA-MB-231/MDR cells” value is reported as “little effect”.

In the case of `O=C1[O][Pt]2([NH][C@@H]3CCCC[C@H]3[NH]2)[O]C1=O` [oxaliplatin, reference compound], the “cell viability of A2780-Cis cells” value in series [1] is given as “little effect”. In the series with CT26 cells [3], the “cell viability of CT26 cells with respect to incubation time” value is on record as “little effect within that time interval” and the “cell viability of CT26 cells” value is given as “little effect”. For the same compound, the A2780-Cis tumor growth result in series [4] is “partial anti-tumor efficacy on A2780-Cis tumors”. In [5], the “cell viability of MDA-MB-231 cells” value is given as “little effect”. In addition, the “Pt concentration in plasma versus time (circulation time)” value in series [6] was “quickly cleared from plasma”. Besides, the “LysoTracker signal (MFI) in CT26 cells” value in the series with CT26 cells [7] was “little effect”. Besides, the body weight decrease entry in [8] is recorded as “more than 15%”. For the same compound, the “spleen appearance and weight” value in [9] was “dramatically shrunken with decreased weight”. Besides, the “cell viability of A2780 cells” value in series [10] was “little effect”. The A2780 tumor growth result with A2780 tumor (setting [16]) was “partially slowed CT26 and A2780 tumor growth”. Moreover, the CT26 tumor growth entry with CT26 tumor [11] (setting [16]) is “partially slowed CT26 and A2780 tumor growth”. Also, the “cell viability of MDA-MB-231/MDR cells” value in series [2] is on record as “little effect”. Besides, in the series with CT26 cells [12], the “apoptosis (Annexin V+ PI−) of CT26 cells” value is “induced cell apoptosis gradually from 0.5 h to 18 h”. The “Pt concentration in tumors versus time” value in the series on CT26 tumor [13] was “rapidly dropped over time”.

“Poly L-Glutamic and poly L-Aspartic acid (Glu:Asp = 7:3)-L-Aspartic-Platinum [P(G-A)-Asp-Pt]”: the “cell viability of A2780-Cis cells” value in series [1] is recorded as “able to kill these drug resistant cells in 30 min”. Also, in the series with CT26 cells [3], the “cell viability of CT26 cells with respect to incubation time” value is listed as “induce rapid cell death in as short as 30 min”; the “cell viability of CT26 cells” value is “able to kill these cancer cells; also recorded: best cytotoxicity to CT26 cells compared to the other platinum derivatives tested; also recorded: better efficacy that P(G-A)-Glu-Pt and P(G-A)-D-Asp-Pt”. Also, the “IC50 in CT26 cells in different incubation times” value in the series on CT26 cells [3] (24 and 48 h, compared with oxaliplatin) is given as “lower IC50”. In addition, the “morphological changes in CT26 cells” value in the series on CT26 cells [14] was “Obvious cancer cell swelling and disrupted plasma membrane”. For the same compound, in series [4], the A2780-Cis tumor growth entry is “significantly prohibited A2780-Cis tumor growth”. Further, the “cell viability of MDA-MB-231 cells” value in series [5] is given as “able to kill these cancer cells”. Also, in the series on CT26 cells [7], the “LysoTracker signal (MFI) in CT26 cells” value is “reduced LysoTracker signal”. In series [10], the “cell viability of A2780 cells” value was “able to kill these cancer cells”. Also, in the series on A2780 tumor (high dose), the A2780 tumor growth result is given as “completely inhibited the growth” and the “mice with complete response, A2780 tumors” value was “over 40%”. The A2780 tumor growth result in the series on A2780 tumor (setting [16]) is on record as “significantly inhibited tumor growth compared to the same oxaliplatin dosage”. For the same compound, in the series on CT26 tumor [11] (high dose), the CT26 tumor growth entry was “completely inhibited the growth” and the “mice with complete response, CT26 tumors” value is listed as “over 40%”. In addition, in the series with CT26 tumor [11] (setting [16]), the CT26 tumor growth result is listed as “significantly inhibited tumor growth compared to the same oxaliplatin dosage”. The “viability of CT26 cells pre-treated with endocytosis/micropinocytosis inhibitors” value with CT26 cells [15] is given as “partially restore cell viability”. In addition, in series [2], the “cell viability of MDA-MB-231/MDR cells” value is listed as “able to kill these drug resistant cells in 30 min”. The “necrosis (PI+) of CT26 cells” value in the series with CT26 cells [12] is “triggered cancer cell necrosis quickly in 30 min”.

For the compound “Poly L-Glutamic and poly L-Aspartic acid (Glu:Asp = 7:3)-Platinum [P(G-A)-Pt]”, in the series with CT26 cells [3], the “cell viability of CT26 cells” value is “best cytotoxicity to CT26 cells compared to the other platinum derivatives tested”.
